One experiment addresses T1, human CK2α (Homo sapiens, UniProt P68400).
T1 construct: made in house
Description: P81 filter isotopic (radiometric) kinase assay, CK2 catalytic subunit. The class given is biochemical. The following applies: substrate peptide […], Ki from IC50 by Cheng–Prusoff. The procedure: (§1) The obtained compounds were tested for their inhibitory activity toward human CK2α, human CK2 holoenzyme, and PIM-1 using a P81 filter isotopic assay as described previously. […] The experimental data were fitted to the sigmoidal dose–response equation, i.e., (variable slope) Y = Bottom + (Top-Bottom)/(1 + 10^((LogIC50−X)∗HillSlope), in GraphPad Prism (Prism 9, v. 9.0.1).
(§2) Inhibition of the human CK2 catalytic subunit (CK2α), CK2 holoenzyme (CK2α2β2), and PIM-1 by the newly obtained compounds was evaluated using a radiometric assay (Table 1, Figure S2). The synthetic peptide […] was used as the substrate of CK2, and peptide […] was used as the substrate of PIM-1. The values of the inhibition constant (Ki) were calculated using the Cheng–Prusoff equation: Ki = IC50/(1 + [S]/Km).

The target in experiment [1] is T2, human CK2 holoenzyme (CK2α2β2) (Homo sapiens, UniProt P68400).
T2 construct: made in house
T2 sequence (P68400 whole entry): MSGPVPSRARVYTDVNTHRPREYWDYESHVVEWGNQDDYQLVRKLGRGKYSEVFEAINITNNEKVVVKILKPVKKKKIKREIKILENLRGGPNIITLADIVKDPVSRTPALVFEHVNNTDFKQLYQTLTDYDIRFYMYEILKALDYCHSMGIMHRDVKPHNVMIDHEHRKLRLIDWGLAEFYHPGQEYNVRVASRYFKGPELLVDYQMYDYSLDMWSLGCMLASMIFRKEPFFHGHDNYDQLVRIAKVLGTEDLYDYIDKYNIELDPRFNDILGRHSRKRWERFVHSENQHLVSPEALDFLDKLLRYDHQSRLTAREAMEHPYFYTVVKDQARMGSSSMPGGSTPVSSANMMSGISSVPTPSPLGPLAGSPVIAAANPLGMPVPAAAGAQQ
T2 sequence (P67870 whole entry partner): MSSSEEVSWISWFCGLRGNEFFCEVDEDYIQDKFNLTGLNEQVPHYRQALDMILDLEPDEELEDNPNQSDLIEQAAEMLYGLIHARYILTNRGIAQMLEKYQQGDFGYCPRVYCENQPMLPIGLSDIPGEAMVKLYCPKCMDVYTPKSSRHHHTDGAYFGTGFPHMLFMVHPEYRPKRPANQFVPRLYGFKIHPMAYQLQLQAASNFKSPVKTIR
Description: P81 filter isotopic (radiometric) kinase assay, CK2 holoenzyme. The class given is biochemical. The following applies: substrate peptide […], Ki from IC50 by Cheng–Prusoff. The procedure:
as §1, §2

For experiment [2], the system named is phosphorylation of Ser112 in BAD (marker of PIM-1 activity), MCF-7. Description: Western blot/densitometry, intracellular PIM-1 inhibition, MCF-7. The following applies: MCF-7, 10 µM, 48 h, densitometry. The class given is cell-based, human. How it is done:
(§3) All the procedures are described in detail in Supplementary Materials (Section S3.3). The protein concentration was determined using a Bradford assay.
(§4) For densitometry, immunoblots were scanned using G Box Chemi (Syngene, Cambridge, UK), and the density of each lane of phosphorylated and total protein was quantified using GeneSys software (Syngene, Cambridge, UK). Phosphorylated protein densities were normalized to GAPDH densities, assuming 1 for untreated cells; then, they were converted to a percentage of the appropriate control.
(§5) The data obtained for p65 confirmed the intracellular inhibition of CK2 by the tested compounds in all the studied cell lines in a dose-dependent manner. […] Otherwise, Western blot data for BAD (a marker of PIM-1 activity) indicated inhibition of PIM-1 only in MCF-7 cells, with the most significant reduction in phosphorylated BAD in cells treated with 10 µM conc. of rac-6 (0.49 of control) (Figure 8b). Unexpectedly, the relative level of BAD-P in the drug-treated CCRF-CEM and K-562 cells was even higher than in control cells.
(§6) The following primary antibodies were used: anti-GAPDH (Millipore, St. Louis, MO, USA; […]
(§7) overnight, +4°C); anti-BAD (Apoptosis I Sampler Kit, # 612741, BD Biosciences, San Diego, CA, USA; 1:1000, overnight, +4°C), anti-phospho-BAD-Ser112 (CST, Beverly, MA, USA; 9291S, 1:500 overnight, +4°C). […]
Background: A western blot detects proteins with antibodies after separation by electrophoresis.

Another experiment has as its system CCRF-CEM cells. The experiment can be described thus: Mitochondrial membrane potential (ΔΨm) assay, JC-1, flow cytometry. The class given is cell-based, human. The following applies: 10 µM, 48 h. How it is done:
Mitochondrial membrane potential was assessed by flow cytometry using 5,5′,6,6′-tetrachloro-1,1′,3,3′-tetraethylbenzimidazolocarbocyanine iodide (JC-1; Sigma-Aldrich, St. Louis, MO, USA). JC-1 undergoes potential-dependent accumulation in mitochondria. In healthy cells, the dye accumulates in mitochondria, forming aggregates with red fluorescence (FL-2 channel), whereas in dead and apoptotic cells, the dye remains in the cytoplasm in a monomeric form and emits green fluorescence (FL-1 channel). Cells were harvested by centrifugation 48 h post treatment, suspended in 1 mL of complete culture medium at approximately 1 × 10^6 cells/mL, and incubated with 2.5 µL of JC-1 solution in DMSO (1 mg/mL) for 15 min at 37 °C in the dark. The stained cells were then washed with cold PBS, suspended in 400 µL of PBS, and examined by flow cytometry.
The most significant effect, i.e., 45% of cells with reduced ΔΨm, was obtained in cells treated with 10 µM conc. of rac-6.
(In general: A flow cytometer gives signals particle by particle.)

In experiment [3] the test system is phosphorylation of Ser112 in BAD (marker of PIM-1 activity), CCRF-CEM. Description: Western blot/densitometry, intracellular PIM-1 inhibition, CCRF-CEM. The class given is cell-based, human. The following applies: 48 h. The procedure: as §3, §4, §5, §6, §7

T1 sequence (P68400 whole entry): as the sequence (P68400 whole entry) above

Broadly, the Ki is a measure of affinity in units of concentration, obtained from inhibition or displacement. Take `OC(CNc1nc2c(Br)c(Br)c(Br)c(Br)c2[nH]1)C(F)(F)F` (racemic) [rac-6, 1,1,1-Trifluoro-3-[(4,5,6,7-tetrabromo-1H-benzimidazol-2-yl)amino]propan-2-ol]: the inhibition constant (Ki) was found to be 294 nM at human CK2α and 112 nM in experiment [1]. Moreover, the “phosphorylated BAD, relative level” value in experiment [2] is reported as 0.49 of control. Also, in the experiment with CCRF-CEM cells, the “cells with reduced ΔΨm” value was determined as 45%. Also, the “level of phosphorylated BAD (in words)” value in experiment [3] is recorded as “increased level of phosphorylated BAD”.
